Results taken from patent US12053451B2, “Arginase inhibitors and their therapeutic applications” (OncoArendi Therapeutics S.A., priority 2016, dated 2024).
Counter-ions that a name gives are not always drawn.

Columns and labels:
[1] = target: T1, recombinant human arginase 1 (Homo sapiens, UniProt P05089); assay: Human arginase activity assay (urea measurement), arginase 1; format: biochemical; details: recombinant human arginase 1, pH 7.4, 37° C., 60 min; * = value for the most potent diastereoisomer or the mixture of diastereoisomers; read-out: Activity Class (ARG I)
T1 construct: purchased Biolegend 552502
T1 sequence (P05089 1-322): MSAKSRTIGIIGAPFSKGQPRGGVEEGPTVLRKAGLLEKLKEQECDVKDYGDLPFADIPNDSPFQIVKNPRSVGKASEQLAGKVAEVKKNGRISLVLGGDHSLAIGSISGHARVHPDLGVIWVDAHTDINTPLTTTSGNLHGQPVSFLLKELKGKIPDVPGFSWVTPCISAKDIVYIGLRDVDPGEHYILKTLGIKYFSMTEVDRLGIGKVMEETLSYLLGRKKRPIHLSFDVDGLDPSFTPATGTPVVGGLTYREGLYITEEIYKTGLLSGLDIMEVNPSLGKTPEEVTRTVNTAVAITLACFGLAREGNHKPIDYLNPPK
Summary of the method: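 Arginase activity was measured as urea formed from L-arginine over 60 min at 37 °C. Reaction stopped with oPA/NED acidic reagent and absorbance read at 530 nm after 20 min colour development. Values were background-subtracted and normalised to no-compound activity, and IC50 was derived from percent-inhibition concentration-response regression.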

[2] = target: T2, intracellular arginase in macrophages isolated from murine bone marrow (BMDM) (Mus musculus, UniProt Q61176); assay: Cell-based assay: intracellular arginase in bone marrow derived macrophages (BMDM), urea level; parameters: species or system Balb/c mice; details: murine BMDM with M-CSF and IL-4, urea measured 24 hours after compound; * = most potent diastereoisomer or mixture of diastereoisomers; read-out: Activity Class (BMDM)
T2 construct: endogenous in cells; host or cells: primary bone marrow derived macrophages from Balb/c mice, M-CSF and IL-4 treated
T2 sequence (Q61176 1-323): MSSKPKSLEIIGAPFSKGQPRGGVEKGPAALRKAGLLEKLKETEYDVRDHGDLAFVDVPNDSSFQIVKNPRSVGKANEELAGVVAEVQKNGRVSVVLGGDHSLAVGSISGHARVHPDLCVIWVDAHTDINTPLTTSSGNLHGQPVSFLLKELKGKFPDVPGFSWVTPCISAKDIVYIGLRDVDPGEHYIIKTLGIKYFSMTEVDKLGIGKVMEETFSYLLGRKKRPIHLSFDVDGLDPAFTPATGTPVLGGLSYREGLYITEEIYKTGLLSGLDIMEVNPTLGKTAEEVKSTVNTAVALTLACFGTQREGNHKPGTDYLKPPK
Experimental: Efficacy of Selected Examples Towards Intracellular Arginase in Macrophages Isolated from Murine Bone Marrow—Bone Marrow Derived Macrophages (BMDM)
Materials & Methods: The assay was performed according to modified literature protocol modification (Pineda-Torra I et al., Methods Mol Biol. 2015; 1339:101-9. Mia S et al. Scand J Immunol. 2014 May; 79(5):305-14). The femurs and tibias were isolated from Balb/c mice. Bones were cleaned from all attached tissues by using sterile swab without affecting the bone structure. Bones were sterilized by immersion in 70% ethanol for 5 min and then rinsed in PBS. The sides of the bones were cut off and flush with cold sterile PBS by using 26-G needle S into a 50 mL sterile tube with a cell strainer (Falcon™, Cat. No. U00149), until bone cavity appeared white. Then the cells were centrifuged (5 min at 500×G, 4° C.), washed twice with PBS and counted. Cells were plated in Petri dish in density of 1×10^6/mL and cultured in DMEM (Gibco, Cat. No. 31331-029) with 10% FBS, 1% pen-strep and 50 ng/mL M-CSF (PeproTech, Cat. No. 315-02), (37° C., 5% CO2). After five days cells were subcultured into P96 plate (BD, Cat. No. 353072) in density of 64 000 cells/well in medium supplemented with 50 ng/mL M-CSF and 20 ng/mL IL-4 (Biomibo Cat. No. 214-1). One day later exemplary compounds (dissolved in PBS) were added in several different concentrations and 24 hours later the level of urea was measured in each well (Jung D et al., Clin Chem. 1975, 21(8):1136-40). The concentration of urea in the absence of any compound was considered as the maximum. The absorbance of cell culture media (background) was subtracted from all the values.
For selected examples the activity class for ARG2 was estimated based on % of inhibition for 1 μM and 100 μM concentration of tested compounds.

[3] = target: T3, recombinant human arginase 2 (Homo sapiens, UniProt P78540); assay: Human arginase activity assay (urea measurement), arginase 2; format: biochemical; details: for selected examples class estimated from % of inhibition at 1 μM and 100 μM, * = most potent diastereoisomer or mixture of diastereoisomers, read-out: Activity Class (ARG II)
T3 construct: made in house; host or cells: CHO
T3 sequence (P78540 23-354): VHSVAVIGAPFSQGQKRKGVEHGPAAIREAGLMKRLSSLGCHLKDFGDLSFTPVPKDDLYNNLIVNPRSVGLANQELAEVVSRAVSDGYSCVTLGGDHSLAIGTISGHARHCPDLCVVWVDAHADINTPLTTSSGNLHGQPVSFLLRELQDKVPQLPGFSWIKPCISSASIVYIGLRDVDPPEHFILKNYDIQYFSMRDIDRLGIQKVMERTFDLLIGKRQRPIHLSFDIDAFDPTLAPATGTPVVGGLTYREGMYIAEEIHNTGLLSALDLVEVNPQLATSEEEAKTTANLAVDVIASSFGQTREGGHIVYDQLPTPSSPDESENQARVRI
Summary of the method: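 Recombinant CHO-expressed human arginase 2 converted 20 mM L-arginine with 150 μM MnCl2 in phosphate buffer pH 7.4 for 60 min at 37 °C. Urea was measured colorimetrically at 530 nm after background subtraction, and IC50 fitted. Some compounds were classed by % inhibition at 1 μM and 100 μM.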

IC50 [1] | IC50 [2] | IC50 [3] | SMILES
1 to 100 nM | 1000 to 10000 nM | 100 to 1000 nM | N[C@@](CCCCB(O)O)(C(=O)O)C1CCN(Cc2ccc(Cl)c(Cl)c2)CC1 [Comparative example 3, reference compound]
1 to 100 nM | 1 to 100 nM | 100 to 1000 nM | N[C@]1(C(=O)O)C[C@H](CCB(O)O)CC[C@H]1CN1CCCCC1 (racemic) [Example 31, rac-(1R,2S,5R)-1-amino-5-(2-boronoethyl)-2-(piperidin-1-ylmethyl)cyclohexanecarboxylic acid dihydrochloride]
1 to 100 nM | 100 to 1000 nM | 1 to 100 nM | CNC[C@@H]1CC[C@@H](CCB(O)O)C[C@]1(N)C(=O)O [Example 39, (1R,2S,5R)-1-amino-5-(2-boronoethyl)-2-((methylamino)methyl)cyclohexanecarboxylic acid dihydrochloride]
100 to 1000 nM | 100 to 1000 nM | 1000 to 10000 nM | CN(C)C[C@H]1CC[C@@H](CCB(O)O)C[C@]1(N)C(=O)O (racemic) [Example 18, rac-(1R,2R,5R)-1-Amino-5-(2-boronoethyl)-2-((dimethylamino)methyl)-cyclohexane-1-carboxylic acid dihydrochloride]
1000 to 10000 nM | 10000 to 100000 nM | 100 to 1000 nM | NC1CC(CCB(O)O)CC1(N)C(=O)O (stereo not drawn) [Example 62, 1,2-diamino-4-(2-boronoethyl)cyclopentanecarboxylic acid dihydrochloride]
1 to 100 nM | 1 to 100 nM | 1 to 100 nM | N[C@]1(C(=O)O)C[C@H](CCB(O)O)CC[C@H]1CN1CCCC1 [Example 71, (1R,2S,5R)-1-amino-5-(2-boronoethyl)-2-(pyrrolidin-1-ylmethyl)cyclohexane-1-carboxylic acid]
10000 to 100000 nM | > 100000 nM | 10000 to 100000 nM | CN(C)C1CC(CCB(O)O)CC(N)(C(=O)O)C1 (stereo not drawn) [Example 65, 1-amino-3-(2-boronoethyl)-5-(dimethylamino)cyclohexane-1-carboxylic acid dihydrochloride]
1 to 100 nM | 100 to 1000 nM | 1 to 100 nM | CCN(C)C[C@@H]1CC[C@@H](CCB(O)O)C[C@]1(N)C(=O)O [Example 69, (1R,2S,5R)-1-amino-5-(2-boronoethyl)-2-((ethyl(methyl)amino)methyl)cyclohexane-1-carboxylic acid]
100 to 1000 nM | 10000 to 100000 nM | 100 to 1000 nM | CC1(O)CCC(CCB(O)O)CC1(N)C(=O)O (stereo not drawn) [Example 50, 1-amino-5-(2-boronoethyl)-2-hydroxy-2-methylcyclohexanecarboxylic acid hydrochloride]
1 to 100 nM | 100 to 1000 nM | 1 to 100 nM | NC1(C(=O)O)C[C@H](CCB(O)O)CCC1CCN1CCCC1 (stereo partly drawn) [Example 46, (5R)-1-amino-5-(2-boronoethyl)-2-(2-(pyrrolidin-1-yl)ethyl)cyclohexanecarboxylic acid dihydrochloride]
1 to 100 nM | 100 to 1000 nM | 100 to 1000 nM | N[C@]1(C(=O)O)C[C@H](CCB(O)O)CC[C@H]1CN1CCCC1 (racemic) [Example 22, rac-(1R,2S,5R)-1-Amino-5-(2-boronoethyl)-2-(pyrrolidin-1-ylmethyl)-cyclohexane-1-carboxylic acid dihydrochloride]
1 to 100 nM | 1000 to 10000 nM | 100 to 1000 nM | NC(CCCCB(O)O)(CCNCCCc1ccc(Cl)cc1Cl)C(=O)O (stereo not drawn) [Comparative example 2, reference compound]
1 to 100 nM | 1 to 100 nM | 100 to 1000 nM | N[C@]1(C(=O)O)C[C@H](CCB(O)O)CC[C@H]1CN1CCCCC1 [Example 70, (1R,2S,5R)-1-amino-5-(2-boronoethyl)-2-(piperidin-1-ylmethyl)cyclohexane-1-carboxylic acid]
1 to 100 nM | 1 to 100 nM | 1 to 100 nM | CN(C)C[C@@H]1CC[C@@H](CCB2O[C@H]3C[C@H]4C[C@H](C4(C)C)[C@@]3(C)O2)C[C@]1(N)C(=O)O [Example 44, (1R,2S,5R)-1-amino-2-((dimethylamino)methyl)-5-(2-((3aR,4R,6R,7aS)-3a,5,5-trimethylhexahydro-4,6-methanobenzo[d][1,3,2]dioxaborol-2-yl)ethyl)cyclohexane-1-carboxylic acid dihydrochloride]
100 to 1000 nM | 10000 to 100000 nM | 1000 to 10000 nM | NC[C@@H]1C[C@@H](CCB(O)O)CC(N)(C(=O)O)C1 (mixture of isomers) [Example 54, rac-(3R,5R)-1-amino-3-(aminomethyl)-5-(2-boronoethyl)cyclohexanecarboxylic acid dihydrochloride]
100 to 1000 nM | 10000 to 100000 nM | 100 to 1000 nM | CN(Cc1ccc(Cl)c(Cl)c1)C[C@@H]1CC[C@@H](CCB(O)O)C[C@]1(N)C(=O)O (racemic) [Example 28, rac-(1R,2S,5R)-1-amino-5-(2-boronoethyl)-2-(((3,4-dichlorobenzyl)(methyl)amino)methyl)cyclohexanecarboxylic acid dihydrochloride]
